Reference: paper PMC11724466, “PRMT5 inhibition has a potent anti-tumor activity against adenoid cystic carcinoma of salivary glands” (Journal of Experimental & Clinical Cancer Research : CR, 2025)

Target: T1, PRMT5 (protein arginine methyl transferase 5) (Homo sapiens, UniProt O14744)
T1 construct: human recombinant PRMT5/MEP50 complex; with MEP50
Test: scintillation proximity radiometric methyltransferase assay (3H-SAM, histone H4 peptide); jump dilution
Assay type: biochemical

T1 sequence (O14744 2-637): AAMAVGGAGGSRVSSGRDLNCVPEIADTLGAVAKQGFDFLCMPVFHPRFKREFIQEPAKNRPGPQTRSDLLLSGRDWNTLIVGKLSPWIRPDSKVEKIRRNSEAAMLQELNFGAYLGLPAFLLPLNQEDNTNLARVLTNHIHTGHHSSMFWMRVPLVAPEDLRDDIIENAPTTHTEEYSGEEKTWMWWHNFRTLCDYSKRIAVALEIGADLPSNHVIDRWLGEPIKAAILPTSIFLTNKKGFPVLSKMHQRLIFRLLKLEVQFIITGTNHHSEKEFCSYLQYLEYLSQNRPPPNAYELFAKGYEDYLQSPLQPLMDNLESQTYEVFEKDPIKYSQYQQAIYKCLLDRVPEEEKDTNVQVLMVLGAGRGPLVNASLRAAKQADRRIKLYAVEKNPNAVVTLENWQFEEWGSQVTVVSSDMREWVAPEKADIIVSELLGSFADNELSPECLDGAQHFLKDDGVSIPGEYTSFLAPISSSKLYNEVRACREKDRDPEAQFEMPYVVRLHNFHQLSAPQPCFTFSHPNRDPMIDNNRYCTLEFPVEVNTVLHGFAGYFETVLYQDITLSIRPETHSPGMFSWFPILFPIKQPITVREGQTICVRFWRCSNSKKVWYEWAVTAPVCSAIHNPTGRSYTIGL
T1 sequence (Q9BQA1 whole entry partner): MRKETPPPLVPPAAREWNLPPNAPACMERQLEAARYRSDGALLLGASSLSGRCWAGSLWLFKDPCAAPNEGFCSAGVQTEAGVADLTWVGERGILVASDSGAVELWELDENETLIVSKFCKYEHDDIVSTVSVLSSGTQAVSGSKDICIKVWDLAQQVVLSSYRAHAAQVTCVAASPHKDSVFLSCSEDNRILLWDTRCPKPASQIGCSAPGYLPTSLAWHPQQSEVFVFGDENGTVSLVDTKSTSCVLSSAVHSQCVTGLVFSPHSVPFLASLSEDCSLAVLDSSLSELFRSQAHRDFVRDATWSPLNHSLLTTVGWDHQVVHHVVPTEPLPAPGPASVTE

PRT543
IC50: 10.8 nM
